Measurements reported in article PMC4014698 (Pharmaceuticals, 2014).
Converted amounts (≈) assume the structure as drawn. Non-standard residues stand in square brackets, D forms with d. Residues, ends and D or L forms follow the SMILES beside them.

Tests used:
human erythrocytes = test: Hemolytic activity (HC50); type: cell-based; conditions: for Hemolytic activity HC50: concentration giving 50% hemolysis after 18 h at 37 °C, 1% human erythrocytes in PBS pH 7.4, hemoglobin release at 570 nm, 100% control water (Figure 7)
Procedure: Hemoglobin release was determined spectrophotometrically at 570 nm.
From these plots, the HC50 values, the peptide concentration that produces 50% hemolysis of human red blood cells after 18 hours in the standard microtiter dilution method was determined.

[1] = tested on: P. aeruginosa strain CP204; conditions: source cystic fibrosis patient; Mueller-Hinton medium, 37 °C, 24 h, 5 × 10^5 CFU/mL; three sets of determinations
Text: (§1) P. aeruginosa strains used are as follows: strain PAO1 was isolated from a human wound in 1955 in Australia; strain WR5 was isolated from a burn patient at Walter Reed Army Hospital, Washington, DC, USA, in 1976 and is a natural toxA^− mutant, but is virulent in experimental mouse models; strain PAK was originally isolated at Memorial University, St. John’s, Newfoundland, Canada, and is widely used in the analysis of pili; strain PA14 was originally isolated as a clinical isolate in 1995 at the Massachusetts General Hospital, Boston, MA, USA and is virulent in a variety of plant and animal models of infection; strain M2 was originally isolated in 1975 from the gastrointestinal tract of a healthy CF1 mouse, University of Cincinnati College of Medicine, and Shriners Burns Institute, Cincinnati, OH, USA and is virulent in a burn mouse model of P. aeruginosa infection; and strain CP204 was isolated from a cystic fibrosis patient in 1989 at the National Jewish Medical and Research Center, Denver, CO, USA. All strains have been maintained at −80 °C in the laboratory of Michael Vasil, University of Colorado, School of Medicine.
(§2) The minimal inhibitory concentration (MIC) is defined as the lowest peptide concentration that inhibited bacterial growth. MICs were measured by a standard microtiter dilution method in Mueller Hinton (MH) medium. Briefly, cells were grown overnight at 37 °C in MH broth and were diluted in the same medium. […] The plates were incubated at 37 °C for 24 h, and the MICs were determined.

P. aeruginosa strain PAK = conditions: Mueller-Hinton medium, 37 °C, 24 h, 5 × 10^5 CFU/mL; three sets of determinations
Text: as §1, §2

P. aeruginosa strain WR5 = conditions: source burn patient; Mueller-Hinton medium, 37 °C, 24 h, 5 × 10^5 CFU/mL; three sets of determinations
Text: as §1, §2

[2] = tested on: P. aeruginosa strain PAO1; conditions: source human wound; Mueller-Hinton medium, 37 °C, 24 h, 5 × 10^5 CFU/mL; three sets of determinations
Text: as §1, §2

[3] = tested on: P. aeruginosa strain PA14; conditions: Mueller-Hinton medium, 37 °C, 24 h, 5 × 10^5 CFU/mL; three sets of determinations
Text: as §1, §2

P. aeruginosa strain M2 = conditions: source burn mouse model; Mueller-Hinton medium, 37 °C, 24 h, 5 × 10^5 CFU/mL; three sets of determinations
Text: as §1, §2

[4] = tested on: Pseudomonas aeruginosa (6 different isolates); conditions: geometric mean of the MIC values from 6 different isolates of P. aeruginosa; Table 3B
Text: as §1, §2
Geometric mean of MIC values was calculated to provide an overall view of antimicrobial activity of different analogs.

[5] = tested on: Acinetobacter baumannii (11 different isolates); type: cell-based; conditions: geometric mean of the MIC values from 11 different isolates of A. baumannii; Table 3A
Text: (§3) All the A. baumannii strains used in this study were (1) obtained from the collection of Dr. Anthony A. Campagnari at the University of Buffalo and originally isolated from different patients and organs/tissues (strain 649, blood; strain 689, groin; strain 759, gluteus; strain 821, urine; strain 884, axilla; strain 899, perineum; strain 964, throat; strain 985, pleural fluid and strain 1012, sputum); (2) were purchased from the American Type Culture Collection (ATCC, Manassas, VA, USA) (strain ATCC 17978, fatal meningitis; and strain ATCC 19606, urine).
(§4) The minimal inhibitory concentration (MIC) is defined as the lowest peptide concentration that inhibited bacterial growth. MICs were measured by a standard microtiter dilution method in Mueller Hinton (MH) medium. Briefly, cells were grown overnight at 37 °C in MH broth and were diluted in the same medium. Serial dilutions of the peptides were added to the microtiter plates in a volume of 50 µL, followed by the addition of 50 µL of bacteria to give a final inoculum of 5 × 10^5 colony-forming units (CFU)/mL. The plates were incubated at 37 °C for 24 h, and the MICs were determined.
Antibacterial activities against six strains of P. aeruginosa and eleven strains of A. baumannii are compared in Table 3. Geometric mean of MIC values was calculated to provide an overall view of antimicrobial activity of different analogs. It is clear that our peptides were effective in killing the microorganisms tested. Compared to a dramatic reduction in hemolytic activity, antibacterial activity of D-piscidin 1 and D-dermaseptin S4 analogs against eleven strains of A. baumannii maintained the same level (within 2-fold) upon the substitution of “specificity determinant(s)” (Table 3).

A. baumannii strain 899 = type: cell-based, Acinetobacter baumannii; conditions: source perineum; Mueller-Hinton medium, 37 °C, 24 h, 5 × 10^5 CFU/mL; three sets of determinations
Text: as §3, §4

A. baumannii strain 1012 = type: cell-based, Acinetobacter baumannii; conditions: source sputum; Mueller-Hinton medium, 37 °C, 24 h, 5 × 10^5 CFU/mL; three sets of determinations
Text: as §3, §4

A. baumannii strain 985 = type: cell-based, Acinetobacter baumannii; conditions: source pleural fluid; Mueller-Hinton medium, 37 °C, 24 h, 5 × 10^5 CFU/mL; three sets of determinations
Text: as §3, §4

[6] = tested on: A. baumannii strain ATCC 17978; type: cell-based, Acinetobacter baumannii; conditions: ATCC 17978, 24 h
Text: as §3, §4

A. baumannii strain 689 = type: cell-based, Acinetobacter baumannii; conditions: source groin; Mueller-Hinton medium, 37 °C, 24 h, 5 × 10^5 CFU/mL; three sets of determinations
Text: as §3, §4

A. baumannii strain 964 = type: cell-based, Acinetobacter baumannii; conditions: source throat; Mueller-Hinton medium, 37 °C, 24 h, 5 × 10^5 CFU/mL; three sets of determinations
Text: as §3, §4

A. baumannii strain 649 = test: MIC, microtiter dilution; type: cell-based, Acinetobacter baumannii; conditions: source blood; Mueller-Hinton medium, 37 °C, 24 h, 5 × 10^5 CFU/mL; three sets of determinations
Text: as §3, §4

A. baumannii strain 759 = test: MIC, microtiter dilution; type: cell-based, Acinetobacter baumannii; conditions: source gluteus; Mueller-Hinton medium, 37 °C, 24 h, 5 × 10^5 CFU/mL; three sets of determinations
Text: as §3, §4

[7] = tested on: A. baumannii strain ATCC 19606; test: MIC, microtiter dilution; type: cell-based, Acinetobacter baumannii; conditions: source urine; Mueller-Hinton medium, 37 °C, 24 h, 5 × 10^5 CFU/mL; three sets of determinations
Text: as §3, §4

A. baumannii strain 884 = test: MIC, microtiter dilution; type: cell-based, Acinetobacter baumannii; conditions: source axilla; Mueller-Hinton medium, 37 °C, 24 h, 5 × 10^5 CFU/mL; three sets of determinations
Text: as §3, §4

A. baumannii strain 821 = test: MIC, microtiter dilution; type: cell-based, Acinetobacter baumannii; conditions: source urine; Mueller-Hinton medium, 37 °C, 24 h, 5 × 10^5 CFU/mL; three sets of determinations
Text: as §3, §4

| SMILES | Hemolytic activity HC50 (human erythrocytes) | MIC CP204 [1] | MIC PAK (P. aeruginosa strain PAK) | MIC WR5 (P. aeruginosa strain WR5) | MIC PAO1 [2] | MIC PA14 [3] | MIC M2 (P. aeruginosa strain M2) | MIC GM [4] | MIC GM [5] | MIC 899 (A. baumannii strain 899) | MIC 1012 (A. baumannii strain 1012) | MIC 985 (A. baumannii strain 985) | MIC ATCC17978 [6] | MIC 689 (A. baumannii strain 689) | MIC 964 (A. baumannii strain 964) | MIC 649 (A. baumannii strain 649) | MIC 759 (A. baumannii strain 759) | MIC ATCC19606 [7] | MIC 884 (A. baumannii strain 884) | MIC 821 (A. baumannii strain 821) | further results |
| --- | --- | --- | --- | --- | --- | --- | --- | --- | --- | --- | --- | --- | --- | --- | --- | --- | --- | --- | --- | --- | --- |
| CSCC[C@@H](NC(=O)[C@@H](Cc1c[nH]c2ccccc12)NC(=O)[C@@H](CC(C)C)NC(=O)[C@@H](C)N)C(=O)N[C@@H](C(=O)N[C@H](CC(C)C)C(=O)N[C@H](CCCCN)C(=O)N[C@H](CCCCN)C(=O)N[C@H](CCCCN)C(=O)N[C@@H](C(=O)N[C@H](CC(C)C)C(=O)N[C@H](CCCCN)C(=O)N[C@H](C)C(=O)N[C@H](CCCCN)C(=O)N[C@H](C)C(=O)N[C@H](CCCCN)C(=O)N[C@H](C)C(=O)N[C@H](CC(C)C)C(=O)N[C@H](CC(N)=O)C(=O)N[C@H](C)C(=O)N[C@@H](C(=O)N[C@H](CC(C)C)C(=O)N[C@@H](C(=O)NCC(=O)N[C@H](C)C(=O)N[C@H](CC(N)=O)C(=O)N[C@H](C)C(N)=O)C(C)C)C(C)C)C(C)C)[C@H](C)O [D-Dermaseptin S4 L7K,A14K] (H-[dA][dL][dW][dM][dT][dL][dK][dK][dK][dV][dL][dK][dA][dK][dA][dK][dA][dL][dN][dA][dV][dL][dV]G[dA][dN][dA]-NH2) | 241 µM | 1.4 µM (≈ 3.99 µg/mL) | 1.4 µM (≈ 3.99 µg/mL) | 11.0 µM (≈ 31.4 µg/mL) | 5.5 µM (≈ 15.7 µg/mL) | 5.5 µM (≈ 15.7 µg/mL) | 21.9 µM (≈ 62.4 µg/mL) | 4.9 µM (≈ 14 µg/mL) | 1.1 µM (≈ 3.14 µg/mL) | 1.4 µM (≈ 3.99 µg/mL) | 2.7 µM (≈ 7.7 µg/mL) | 0.7 µM (≈ 2 µg/mL) | 0.7 µM (≈ 2 µg/mL) | 0.7 µM (≈ 2 µg/mL) | 2.7 µM (≈ 7.7 µg/mL) | 0.7 µM (≈ 2 µg/mL) | 1.4 µM (≈ 3.99 µg/mL) | 0.7 µM (≈ 2 µg/mL) | 1.4 µM (≈ 3.99 µg/mL) | 0.7 µM (≈ 2 µg/mL) |  |
| CSCC[C@@H](NC(=O)[C@@H](Cc1c[nH]c2ccccc12)NC(=O)[C@@H](CC(C)C)NC(=O)[C@@H](C)N)C(=O)N[C@@H](C(=O)N[C@H](CC(C)C)C(=O)N[C@H](CC(C)C)C(=O)N[C@H](CCCCN)C(=O)N[C@H](CCCCN)C(=O)N[C@@H](C(=O)N[C@H](CC(C)C)C(=O)N[C@H](CCCCN)C(=O)N[C@H](C)C(=O)N[C@H](C)C(=O)N[C@H](C)C(=O)N[C@H](CCCCN)C(=O)N[C@H](C)C(=O)N[C@H](CC(C)C)C(=O)N[C@H](CC(N)=O)C(=O)N[C@H](C)C(=O)N[C@@H](C(=O)N[C@H](CC(C)C)C(=O)N[C@@H](C(=O)NCC(=O)N[C@H](C)C(=O)N[C@H](CC(N)=O)C(=O)N[C@H](C)C(N)=O)C(C)C)C(C)C)C(C)C)[C@H](C)O [D-Dermaseptin S4] (H-[dA][dL][dW][dM][dT][dL][dL][dK][dK][dV][dL][dK][dA][dA][dA][dK][dA][dL][dN][dA][dV][dL][dV]G[dA][dN][dA]-NH2) | 0.6 µM | 11.3 µM (≈ 31.4 µg/mL) | 11.3 µM (≈ 31.4 µg/mL) | 11.3 µM (≈ 31.4 µg/mL) | 11.3 µM (≈ 31.4 µg/mL) | 22.5 µM (≈ 62.5 µg/mL) | 11.3 µM (≈ 31.4 µg/mL) | 12.6 µM (≈ 35 µg/mL) | 1.8 µM (≈ 5 µg/mL) | 1.4 µM (≈ 3.89 µg/mL) | 2.8 µM (≈ 7.78 µg/mL) | 0.7 µM (≈ 1.94 µg/mL) | 2.8 µM (≈ 7.78 µg/mL) | 1.4 µM (≈ 3.89 µg/mL) | 1.4 µM (≈ 3.89 µg/mL) | 1.4 µM (≈ 3.89 µg/mL) | 1.4 µM (≈ 3.89 µg/mL) | 2.8 µM (≈ 7.78 µg/mL) | 2.8 µM (≈ 7.78 µg/mL) | 2.8 µM (≈ 7.78 µg/mL) | Hemolytic activity Fold improvement in HC50 (human erythrocytes): 1.0 fold |
